Four compounds from patent publication US20250162990A1, “COMPOUNDS AND METHODS FOR INHIBITING CANCERS OVER-EXPRESSING REPLICATION FACTOR C 40” (RAADYSAN BIOTECH, INC., priority 2022, published 2025) can be followed below.

Data set [1] concerns MDA-MB-231 cells. The experiment in a line: Apoptosis, caspase3/7 activation, ApoLive Glo Multiplex Assay. Format: cell-based. Particulars: 24 hr, caspase3/7 luminescence. As to the method: (§1) Non-cancerous breast epithelial cells (MCF10A) and TNBC cell line (MDA-MB-231; mesenchymal; originating from a person) were purchased from the ATCC (American Type Culture Collection, Manassas, Virginia). The effect of the 7 SMEs on cell viability and apoptosis, in MDA-MB-231 and MCF10A cell lines, respectively, was determined as follows. The MCF10A and MDA-MB-231 cells were incubated with different concentrations (100 μM, 10 μM, 1 μM, 0.1 μM, 10 nM, 1 nM, 0.1 nM, and DMSO only) of the 7 SMEs for 24 hours at 37° C. Cell viability and apoptosis was estimated using the ApoLive Glo Multiplex Assay kit 29 (Promega, Madison, WI). Live-cell protease fluorescence (cell viability) was measured at 400 Ex/505 Em and caspase3/7 activation (apoptosis) was measured by luminescence on Envision plate reader.

Data set [2] concerns MCF10A cells (non-cancerous breast epithelial cells). The experiment in a line: Cell viability, ApoLive Glo Multiplex Assay (live-cell protease fluorescence). Format: cell-based. Conditions: 24 hours; for effect on the cell viability of MCF10A cells at lower drug concentrations: concentrations of up to 10 μM; for effect on the cell viability of MCF10A cells: 0.1 nM to 100 μM. As to the method:
as §1

In data set [3] the test system is MDA-MB-231 cells (TNBC cell line). Described as above. Format: cell-based. Conditions: for EC50: Homo sapiens, MDA-MB-231, 24 hours at 37° C., read-out: EC50, inhibition of TNBC cell viability; for inhibited TNBC cell viability: MDA-MB-231, 24 hours, dose-dependent (up to 100 μM). As to the method:
as §1

Data set [4] concerns the target T1, Recombinant human RFC40 protein (Homo sapiens, UniProt P35250).
T1 construct: purchased Origene Technologies (Rockville, MD)
The experiment in a line: RFC40 ATPase enzyme activity, ADP-Glo Max Assay. Format: biochemical. Conditions: RFC40 250 nM, ATP 25 μM; for inhibition at 0.0001 µM: 0.1 nM compound, after 90 min pre-incubation, read-out: time-dependent increase in the inhibition of the RFC40 enzyme activity; for inhibition of RFC40 enzyme activity after 30 min of incubation: 30 min pre-incubation at 37° C. As to the method: FIGS. 15A-B are graphs of RFC40 ATPase activity inhibition. Human recombinant RFC40 (250 nM) was pre-incubated, individually, with different concentrations of compounds labeled RDY00209 and RDY00120 at 37° C. ATP (25 μM) was then added to the mixture and the ATPase enzyme activity of RFC40 was estimated using the ADP-Glo Max Assay. FIG. 15A presents RFC40 enzyme activity after a 30 min incubation with each compound, and FIG. 15B presents RFC40 enzyme activity after a 90 min incubation with each compound.
Method: Biochemical assays were performed to determine the effects of the 2 SMEs RDY00209 and RDY00120 on the enzymatic activity of RFC40. Recombinant human RFC40 protein was purchased from Origene Technologies (Rockville, MD). ATPase enzyme activity of RFC40 was estimated using the ADP-Glo Max Assay kit^32 (Promega, Madison, WI), as per the manufacturer's instructions. RFC40 (250 nM) was pre-incubated, individually, with different concentrations (100 μM, 0.1 μM, 0.1 nM and 0) of RDY00209 and RDY00120 for 30 min and 90 min, respectively, at 37° C. ATP (25 μM) was then added to the mixture and incubated for another 3 hours at 37° C. Luminescence was read on an Envision plate reader.
In general terms: In ADP-Glo the light output rises with the ADP produced.

Data set [5] deals with T2, RFC40 in HEK293 cells (Homo sapiens, UniProt P35250).
T2 construct: endogenous in cells; host or cells: HEK293
T2 sequence (P35250 whole entry): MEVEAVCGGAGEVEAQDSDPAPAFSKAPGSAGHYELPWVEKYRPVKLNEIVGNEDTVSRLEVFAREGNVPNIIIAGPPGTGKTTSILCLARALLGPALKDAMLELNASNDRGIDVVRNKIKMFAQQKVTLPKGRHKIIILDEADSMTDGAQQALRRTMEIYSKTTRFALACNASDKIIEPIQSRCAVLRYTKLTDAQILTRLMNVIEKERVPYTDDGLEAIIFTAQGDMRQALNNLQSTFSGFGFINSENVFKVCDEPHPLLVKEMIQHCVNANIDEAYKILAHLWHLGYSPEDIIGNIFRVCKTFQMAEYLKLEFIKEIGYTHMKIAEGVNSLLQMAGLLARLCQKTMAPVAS
The experiment in a line: RFC40 protein expression by Western blot. Format: cell-based. Particulars: 2 different concentrations, 24 hr. On the procedure: HEK293 cells were plated in 6-well plates and grown until they were 80% confluent. The cells were then treated with RDY00012, in a dose-dependent manner [100 μM, 10 μM, 1 μM, 0.1 μM, 0 μM (DMSO only)], for 24 hours at 37° C. Samples were run 9% SDS-PAGE and Western blot analysis was performed using rabbit polyclonal anti-RFC40 (1:100, Abcepta) and mouse monoclonal anti-β-Actin (1:500, Santa Cruz Tech) primary antibodies, respectively. Following incubation with anti-rabbit, and anti-mouse secondary antibodies, respectively, specific proteins were detected by chemiluminescence.

Broadly, the EC50 is the concentration at which the effect is half-maximal. The inhibition is the percentage by which the read-out fell short of the control.

T1 sequence (P35250 whole entry): as above

As for `COc1cccc(-c2ccc(=O)n(CCCC(=O)Nc3nnc(C)s3)n2)c1` [RDY00034], the “induction of apoptosis in MDA-MB-231 cells” value (“induction of apoptosis” below) in data set [1] is given as “did not induce apoptosis”. The “effect on the cell viability of MCF10A cells at lower drug concentrations” value in data set [2] is given as “did not affect”. Also, in data set [3], the EC50 came out at 5.42 µM and the “inhibited TNBC cell viability” value was 95%.
On to `O=C(O)c1csc(S(=O)(=O)Nc2cccc3c2CCCC3)c1` [RDY00120], for which the “induction of apoptosis” value in data set [1] is on record as “did not induce apoptosis”. In addition, in data set [4], the inhibition at 0.0001 µM was 36.5% and the “inhibition of RFC40 enzyme activity after 30 min of incubation” value is recorded as “inhibited the enzyme activity in a dose-dependent manner”. Also, the “effect on the cell viability of MCF10A cells” value in data set [2] is given as “no effect”. Besides, in data set [3], the EC50 came to 7.14 µM and the “inhibited TNBC cell viability” value came to 95%.
On to `O=C(O)c1ccc(OCc2ccc3nsnc3c2)cc1` [RDY00012], for which, in data set [5], the “expression of RFC40” value is listed as “downregulated the expression of RFC40”. In addition, the “induction of apoptosis” value in data set [1] is on record as “did not induce apoptosis”. Further, in data set [2], the “effect on the cell viability of MCF10A cells at lower drug concentrations” value is reported as “did not affect”. In data set [3], the EC50 stood at 7.81 µM and the “inhibited TNBC cell viability” value is 95%.
Consider `O=C(O)CNC(=O)CCn1ccc2ccc(Cl)cc21` [RDY00209], for which, in data set [1], the “induction of apoptosis” value was “did not induce apoptosis”. For the same compound, in data set [4], the inhibition at 0.0001 µM was determined as 22.1% and the “inhibition of RFC40 enzyme activity after 30 min of incubation” value is given as “inhibited the enzyme activity in a dose-dependent manner”. The “effect on the cell viability of MCF10A cells” value in data set [2] is given as “no effect”. Besides, in data set [3], the EC50 was determined as 6.92 µM and the “inhibited TNBC cell viability” value was 95%.
